{
  "source": "patent US5164405A",
  "about": "“Nicardipine pharmaceutical composition for parenteral administration” (Syntex (U.S.A.) Inc., priority 1990, dated 1992)",
  "key": {"physchem": {"test": "physchem", "assay_type": "physicochemical", "conditions": "for solubility thermodynamic: Equilibrium solubility", "description": "The solubilities were equilibrium solubilities measured by a saturated solution method well known to those skilled in the art."}, "[1]": {"test": "Dissolution, free base precipitation and tonicity on preparation of formulations", "assay_type": "physicochemical", "conditions": "for Dissolution: added to citrate buffer solution; for Dissolution / Dissolution in water for injection / free base precipitation: monohydrochloride; for Dissolution in water for injection / free base precipitation: unbuffered water for injection, before pH adjustment", "protocol": "With regard to the process for producing the stable pharmaceutical composition according to the inventions, preferably the citric acid and sodium hydroxide is first dissolved in some water for injection to form a solution of the desired pH. The nicardipine HCI and sorbitol are then added and dissolved in this solution of controlled pH and the resulting solution made to volume with the remainder of the water for injection.\nA. In an initial attempt to formulate a pharmaceutical composition of nicardipine hydrochloride suitable for parenteral administration employing conventional techniques well known in the pertinent art, 1 mg of nicardipine hydrochloride was dissolved in water for injection. To this was admixed 6 mg of sodium chloride and a sufficient amount of hydrochloric acid to give a solution having a pH of 3 5. This solution was then made up to volume with water for injection, i.e., to 1 ml. The resulting composition was packaged in an ampule and sterilized by autoclaving.\nB. Then, in a following attempt to formulate a pharmaceutical composition of nicardipine hydrochloride for parenteral administration employing conventional techniques well known in the pertinent art, 1 mg of nicardipine hydrochloride together with about 50 mg of the non-chloride, saccharide compound, sorbitol, were dissolved in a portion of water for injection. Sufficient amounts of concentrated hydrochloric acid was added to produce a solution of pH 3.5 and the composition was made to volume with the remainder of the water for injection, i.e. to 1 ml. The resulting composition was packaged in an ampule and sterilized by autoclaving.\nThe solution was made up to volume, i.e 1 ml. with the remainder of the water for injection. This solution was then filled into ampules and terminally sterilized by autoclaving."}},
  "data": [
    {"smiles": "COC(=O)C1=C(C)NC(C)=C(C(=O)OCCN(C)Cc2ccccc2)C1c1cccc([N+](=O)[O-])c1.Cl", "note": "(stereo not shown) [Nicardipine Hydrochloride, 2-(Benzylmethylamino)ethyl methyl 1,4-dihydro-2,6-dimethyl-4-(m-nitrophenyl)-3,5-pyridine-dicarboxylate monohydrochloride]", "values": [
      {"measurement": "Aqueous solubility as a function of pH", "setting": "physchem", "value": "reduction in the aqueous solubility"},
      {"measurement": "solubility thermodynamic", "setting": "physchem; water, pH 3.05, water", "value": 2940, "unit": "µg/mL"},
      {"measurement": "solubility thermodynamic", "setting": "physchem; water, pH 3.45, water", "value": 3280, "unit": "µg/mL"},
      {"measurement": "Equilibrium solubility", "setting": "physchem; water, pH 4.06", "value": 5.16, "unit": "mg/mL"},
      {"measurement": "solubility thermodynamic", "setting": "physchem; water, pH 4.06, water", "value": 2950, "unit": "µg/mL"},
      {"measurement": "solubility thermodynamic", "setting": "physchem; water, pH 4.24, water", "value": 2350, "unit": "µg/mL"},
      {"measurement": "solubility thermodynamic", "setting": "physchem; water, pH 4.68, water", "value": 850, "unit": "µg/mL"},
      {"measurement": "solubility thermodynamic", "setting": "physchem; water, pH 5.05, water", "value": 360, "unit": "µg/mL"},
      {"measurement": "solubility thermodynamic", "setting": "physchem; water, pH 6.21, water", "value": 25, "unit": "µg/mL"},
      {"measurement": "Dissolution", "setting": "[1]; listed as Nicardipine HCl", "value": "very easy"},
      {"measurement": "Dissolution", "setting": "[1]", "value": "rapid and complete dissolution"},
      {"measurement": "Precipitation of free base", "setting": "[1]; dissolved in buffer solution", "value": "No precipitation of free base was observed"},
      {"measurement": "Temperature that can be required for dissolution", "setting": "[1]; dissolved in water, before buffer addition or unbuffered", "value": "60-70 °C"},
      {"measurement": "Dissolution of required dose strength (1 mg per ml)", "setting": "[1]; sodium chloride increased to give an isotonic solution", "value": "failure to dissolve sufficient nicardipine hydrochloride"},
      {"measurement": "Dissolution in water for injection / free base precipitation", "setting": "[1]; listed as Nicardipine HCl", "value": "difficult"},
      {"measurement": "Dissolution in water for injection / free base precipitation", "setting": "[1]", "value": "formation of nicardipine free base which precipitates from solution"}
    ]}
  ]
}
